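Growth conditions: 96-well plates. Treatment: test compound, 48 hours, 5 concentrations. Analysis: linear interpolation between bracketing concentrations; unreached endpoints set to highest concentration. GI50 is the concentration that inhibits growth by half. The concentration for full growth arrest is given as TGI.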
What was measured:
Assay in all cases: DTP human tumour cell line panel, 48 h
[1] = tested on: 786-0 renal
[2] = tested on: HCT-15 colon
[3] = tested on: IGROV1 ovarian
[4] = tested on: LOX IMVI melanoma
[5] = tested on: M14 melanoma
[6] = tested on: MALME-3M melanoma
[7] = tested on: OVCAR-4 ovarian
[8] = tested on: OVCAR-8 ovarian
[9] = tested on: RXF 393 renal
[10] = tested on: DU-145 prostate

Structure (SMILES) | TGI [1] | TGI [2] | TGI [3] | TGI [4] | TGI [5] | TGI [6] | TGI [7] | TGI [8] | TGI [9] | GI50 [1] | GI50 [10] | TGI [10] | GI50 [2] | GI50 [3] | GI50 [4] | GI50 [5] | GI50 [6] | GI50 [7] | GI50 [8] | GI50 [9]
CC(=O)N(N=O)c1ccc(N(N=O)C(C)=O)cc1 | > 100 µM | > 100 µM | > 100 µM | > 100 µM | > 100 µM | > 100 µM | > 100 µM | > 100 µM | > 100 µM |  |  |  |  |  |  |  |  |  |  | 
C/C(=N\NC(=O)c1ccccc1O)c1c(O)cc(C)oc1=O | > 100 µM | > 100 µM | > 100 µM | > 100 µM | > 100 µM | > 100 µM | > 100 µM | > 100 µM | > 100 µM |  |  |  |  |  |  |  |  |  |  | 
Cc1ccc(NC(=O)C(=O)C2C(=O)NC(=O)NC2=O)c(C)c1 | > 100 µM | > 100 µM | > 100 µM | > 100 µM | > 100 µM | > 100 µM | > 100 µM | > 100 µM | > 100 µM |  |  |  |  |  |  |  |  |  |  | 
CC(=O)OC1CC2C(C)(C)C(=O)C=C[C@]2(C)C2CCC3(C)C(c4ccoc4)C(=O)C4OC43[C@]12C (stereo partly drawn) | 69.3 µM | 29.9 µM | 47.5 µM | 25.9 µM | 39.5 µM | 40.3 µM | 58.9 µM | 64.4 µM |  |  |  |  |  |  |  |  |  |  |  | 
C=C1C2CC(OC(C)=O)C3(C)C(c4ccoc4)OC(=O)[C@@H](O)[C@]13OC1C[C@H](OC(C)=O)C(C)(C)[C@H](C(O)C(=O)OC)[C@]12C (stereo partly drawn) | > 100 µM | > 100 µM | > 100 µM | > 100 µM | > 100 µM |  | > 100 µM | > 100 µM |  |  |  |  |  |  |  |  |  |  |  | 
Nc1ccc(C(=O)CC2(O)C(=O)Nc3ccccc32)cc1 (stereo not drawn) | > 100 µM | > 100 µM | > 100 µM | > 100 µM | > 100 µM | > 100 µM | > 100 µM | > 100 µM | > 100 µM |  |  |  |  |  |  |  |  |  |  | 
COc1cc(/C=C/C(=O)c2ccccc2O)ccc1OCCCOc1cc2c(cc1OC)C(=O)N1CCC[C@H]1C=N2 | 1.53 µM | 1.05 µM | 0.163 µM | 0.0489 µM | 0.172 µM | 0.318 µM | 15.2 µM | 13.5 µM |  | 0.025 µM | 0.0351 µM | 0.452 µM | 0.255 µM | 0.0255 µM | 0.0204 µM | 0.0401 µM | 0.0787 µM | 0.116 µM | 0.0759 µM | 
CC1=NC(C)=C(/C(C)=N/NC(=O)c2ccccc2O)C(C)/C1=C(/C)NNC(=O)c1ccccc1O (stereo not drawn) | 44.3 µM | 99 µM | 33 µM | 51.7 µM | > 100 µM | 80.8 µM | 48.4 µM | 50.5 µM | 26.2 µM |  |  |  |  |  |  |  |  |  |  | 
CN1C(c2ccccc2)CC(=NO)CC1c1ccccc1 (stereo not drawn) | > 100 µM | > 100 µM | > 100 µM | 40.7 µM | > 100 µM | > 100 µM | > 100 µM | > 100 µM | > 100 µM | 95.7 µM |  |  | 41.1 µM |  |  |  |  |  | 54.1 µM | 87.9 µM
COc1ccc(OC)c(-c2cc(-c3ccc(Cl)cc3)nn2-c2ccccc2)c1 | 57.7 µM | > 100 µM | > 100 µM |  | 45.6 µM |  |  | 93.9 µM |  | 17.3 µM | 96.7 µM | > 100 µM | 34.2 µM | 59.5 µM |  | 14.8 µM |  |  | 24.4 µM | 
C=CCC1(CN(C)C)CC/C(=C\c2cc(OC)c(OC)c(OC)c2)C1=O (stereo not drawn) | 39.3 µM | 35.2 µM | 74.6 µM | 43 µM | 38.4 µM | > 100 µM | 50.4 µM | 54.6 µM | 37.3 µM |  |  |  |  |  |  |  |  |  |  | 
CON1C(=O)C2(CCCCC2)C(=O)C12C=CC(C)CC2 (stereo not drawn) | > 100 µM | > 100 µM | > 100 µM | > 100 µM | > 100 µM | > 100 µM |  | > 100 µM | > 100 µM |  |  |  |  |  |  |  |  |  |  | 
CSc1nc2c(nc(N)n2C2OC(CO)C(O)C(O)C2O)c(=O)[nH]1 (stereo not drawn) | > 100 µM |  | > 100 µM | > 100 µM | > 100 µM | > 100 µM | > 100 µM | > 100 µM | > 100 µM |  |  |  |  |  |  |  |  |  |  | 
C[C@]12CC[C@@H]3c4ccc(O)cc4CC[C@H]3[C@@H]1CC(Cc1ccccc1)(Cc1ccccc1)C2=O | 26.7 µM | 28.7 µM | 41.5 µM | 27.2 µM | 26.2 µM | 48.9 µM | 27.3 µM | 61.3 µM |  | 13.6 µM | 15.1 µM | 30.5 µM | 13.9 µM | 20.3 µM | 12.7 µM | 13.1 µM | 23.5 µM | 12.7 µM | 21.5 µM | 
CCCCSC1CCSc2c1ccc1ccccc21 (stereo not drawn) | > 100 µM | > 100 µM | > 100 µM |  | > 100 µM | 46.9 µM | > 100 µM | > 100 µM | > 100 µM |  |  |  |  |  |  |  |  |  |  | 
NCCCNCc1c2ccccc2c(CNCCCN)c2ccccc12 | 36.2 µM | 54.1 µM | > 100 µM |  |  | 24.2 µM | 26.5 µM | 33.9 µM | 35.7 µM |  |  |  |  |  |  |  |  |  |  | 
Cc1cc2[nH]c(=O)c3c4ncccc4cn3c2cc1C | 8.42 µM |  | > 100 µM | 3.34 µM |  |  | > 100 µM | > 100 µM |  | 3.06 µM | 4.13 µM | > 100 µM |  | 2.75 µM | 1.72 µM |  |  | 4.17 µM | 2.89 µM | 
O=C(O)C(Cc1ccccc1)N=Cc1nc(-c2ccccc2)oc1O (stereo not drawn) | > 100 µM | > 100 µM | > 100 µM | > 100 µM | > 100 µM | > 100 µM | > 100 µM | > 100 µM | > 100 µM |  |  |  |  |  |  |  |  |  |  | 
COc1cc(/C=C2\C[C@H]3[C@@H]4CC=C5C[C@@H](O)CC[C@]5(C)[C@H]4CC[C@]3(C)[C@H]2O)ccc1OCCN1CCCCC1 | 1.18 µM | 1.03 µM | > 26.3 µM | 1.34 µM | 0.954 µM |  |  | > 12.1 µM | 2.31 µM | 0.47 µM | 1.61 µM | 4.58 µM | 0.465 µM | 2.35 µM | 0.589 µM | 0.424 µM |  |  | 1.57 µM | 1.04 µM
